Molecules are shown by their SMILES.

In ChEMBL document CHEMBL4028843, “Synthesis of both enantiomers of 1,2,3,4-tetrahydroisoquinoline derivative IPPAM-1 and enantio-dependency of its positive allosteric modulation of prostacyclin receptor” (Bioorg Med Chem Lett, 2017) one finds Activity data, which are given here for one molecule.

The experiment concerns the target Prostacyclin receptor (Homo sapiens) (UniProt P43119). Kind of experiment: Positive allosteric modulation of human prostacyclin receptor expressed in CHOK1 cells assessed as increase in PGI2-induced cAMP production by measuring 2 fold leftward shift in PGI2 concentration response curve measured after 1 hr. The experiment is classed as functional, cell-based. A general note: Cyclic AMP is a second messenger, typically raised through Gs and lowered through Gi signalling.

Prostacyclin receptor (Homo sapiens), sequence (P43119 whole entry): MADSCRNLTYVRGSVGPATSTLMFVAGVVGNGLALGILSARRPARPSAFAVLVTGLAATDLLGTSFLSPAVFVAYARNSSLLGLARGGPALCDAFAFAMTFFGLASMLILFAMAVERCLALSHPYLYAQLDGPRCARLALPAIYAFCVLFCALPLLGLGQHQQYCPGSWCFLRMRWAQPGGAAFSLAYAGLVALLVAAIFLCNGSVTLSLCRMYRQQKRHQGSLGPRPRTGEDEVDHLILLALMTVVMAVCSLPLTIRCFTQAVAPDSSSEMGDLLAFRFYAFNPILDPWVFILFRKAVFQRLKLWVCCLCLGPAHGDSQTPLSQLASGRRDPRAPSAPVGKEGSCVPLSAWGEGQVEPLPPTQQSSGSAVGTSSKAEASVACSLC

In the case of `CC(C)(C)n1nnnc1[C@@H](c1ccccc1)N1CCc2ccccc2C1`, the Activity is 3.1 µM.
